Inhibition and IC50 data for 56 molecules are collected here from ChEMBL document CHEMBL4765281, “Development of a novel nitric oxide (NO) production inhibitor with potential therapeutic effect on chronic inflammation” (Eur J Med Chem, 2020).

In assay [1] the test system is RAW264.7. Put plainly: Inhibition of LPS-induced nitric oxide production in mouse RAW264.7 cells at 10 uM measured after 24 hrs by Griess reagent based assay relative to control. The class given is functional. Background: Nitrite, measured by Griess reagent, commonly stands in for NO production.
In assay [2] the test system is RAW264.7. Nature of the assay: Inhibition of LPS-induced nitric oxide production in mouse RAW264.7 cells. The class given is functional, cell-based.
Assay [3] concerns RAW264.7. Put plainly: Inhibition of LPS-induced nitric oxide production in mouse RAW264.7 cells measured after 24 hrs by Griess reagent based assay. The class given is functional, cell-based. The following applies: RAW264.7, 24 h.
Assay [4] concerns RAW264.7. Put plainly: Cytotoxicity against mouse RAW264.7 cells assessed as reduction in cell viability measured after 24 hrs by MTT assay. The class given is cell-based. Particulars: RAW264.7, 24 h. On the technique in general: Tetrazolium dyes change colour on reduction, which living cells bring about.

The structures appear in SMILES notation. pIC50: −log10 of the molar value.

The molecule `COc1cc(O)c(C(=O)/C=C/c2ccc(OCCCN3CCN(C)CC3)c(OC)c2)c(OC)c1` displayed an inhibition at 10 µM with RAW264.7 [1] of 70.4%. On the same count and under the same terms, the same measure for `COc1ccc(/C=C/C(=O)c2c(O)cc(OC)cc2OC)c(OC)c1`: 67.6%. `COc1cccc(OC)c1C(=O)/C=C/c1ccc(N(C)C)cc1`: in the assay on RAW264.7 [2], the negative logarithm of the IC50 (pIC50) is 6.22.

In the assay on RAW264.7 [2], `COc1cccc(O)c1C(=O)/C=C/c1cccc(Br)c1` showed a negative logarithm of the IC50 (pIC50) of 5.11. As to `COc1cccc(/C=C(\C)C(=O)c2c(O)cc(OC)cc2OC)c1`, the inhibition at 10 µM in the assay with RAW264.7 [1] came out at 68.3%.

With `CC1(C)C=Cc2c(ccc(C(=O)/C=C/c3ccc(O)cc3)c2O)O1`, the pIC50 in the assay on RAW264.7 [2] is 4.99. Regarding `COc1cc(O)c(C(=O)/C(C)=C/c2ccc(C)cc2)c(OC)c1`, the inhibition at 10 µM in the assay on RAW264.7 [1] came out at 56.8%. The same measure, in the same setting: the same measure for `COc1ccc(/C=C(\C)C(=O)c2c(O)cc(OC)cc2OC)cc1`: 41.6%. `COc1cc(O)c(C(=O)/C=C/c2ccc(OCCCN3CCCC3)c(OC)c2)c(OC)c1` showed an inhibition at 10 µM in the assay on RAW264.7 [1] of 83.1%. Besides, the values for the negative logarithm of the IC50 (pIC50) in the assay with RAW264.7 [3] and in the assay on RAW264.7 [4] were 5.19 and less than 4.40, respectively. As to `COc1cc(O)c(C(=O)/C=C/c2ccc([N+](=O)[O-])cc2)c(OC)c1`, in the assay on RAW264.7 [1], 10 µM produced 35.4% inhibition. As for `CC1(C)C=Cc2cc(C(=O)/C=C/c3ccc(O)cc3)c(O)cc2O1` [4-HYDROXYISOLONCHOCARPIN], the pIC50 with RAW264.7 [2] was 5.62. As to `COc1cccc(/C=C/C(=O)c2c(O)cc(OC)cc2OC)c1`, the inhibition at 10 µM with RAW264.7 [1] stood at 86.9%. The pIC50 in the assay with RAW264.7 [3] was 5.62; in the assay on RAW264.7 [4], 4.47. In the case of `COc1cccc(C2CC(=O)c3c(OC)cc(OC)cc3O2)c1` (configuration not stated), in the assay on RAW264.7 [1], the inhibition at 10 µM is 57.3%. Molecule `COc1cc(O)c(C(=O)/C=C/c2ccc(C)cc2)c(OC)c1` gave an inhibition at 10 µM in the assay with RAW264.7 [1] of 82.1%. The negative-log IC50 (pIC50) in the assay with RAW264.7 [3] is 5.20; in the assay on RAW264.7 [4], less than 4.40.

`COc1cc(O)c(C(=O)/C(F)=C/c2ccc(C)cc2)c(OC)c1` gave an inhibition at 10 µM with RAW264.7 [1] of 50.8%.

As to `COc1cc(O)c(C(=O)/C=C/c2ccc(OC)c(O)c2)c(OC)c1`, testing at 10 µM in the assay on RAW264.7 [1] gave an inhibition of 70.6%. In turn, `CC(C)=CCc1c(O)ccc(C(=O)/C=C/c2ccc(O)cc2)c1O` [ISOBAVACHALCONE] gave a pIC50 in the assay on RAW264.7 [2] of 5.80.

In the assay with RAW264.7 [1], `COc1cc(O)c(C(=O)/C=C/c2cc(OC)c(OC)c(OC)c2)c(OC)c1` returned an inhibition at 10 µM of 77.4%. On the same count and under the same terms, the same measure for `COc1cc(O)c(C(=O)/C=C/c2cccnc2)c(OC)c1`: 78%. As for `COc1cc(C(=O)/C=C/c2cc(OC)c(OC)c(OC)c2)ccc1O`, the pIC50 in the assay on RAW264.7 [2] was 5.38. Regarding `COc1cc(O)c(C(=O)/C=C/c2ccc(OCCCN3CCCCC3)c(OC)c2)c(OC)c1`, in the assay on RAW264.7 [1], testing at 10 µM gave an inhibition of 74.8%. Turning to `COc1cccc(C(=O)/C=C/c2cc(OC)c(OC)c(OC)c2)c1`, the negative logarithm of the IC50 (pIC50) in the assay with RAW264.7 [2] is 5.54.

As to `COc1cc(O)c(C(=O)/C=C/c2cc(OC)c(OC)cc2OC)c(OC)c1`, in the assay with RAW264.7 [1], at 10 µM the inhibition was 78.4%. Turning to `COc1cc(O)c(C(=O)/C=C/c2ccc(OC)c(Br)c2)c(OC)c1`, in the assay on RAW264.7 [1], the inhibition at 10 µM was 73.8%. Molecule `COc1cc(/C=C/C(=O)c2ccc(F)cc2)cc(OC)c1OC` had a negative-log IC50 (pIC50) in the assay on RAW264.7 [2] of 7.48. The molecule `CCOc1cc(OC)cc(OC)c1C(=O)/C=C/c1cccc(OC)c1` had an inhibition at 10 µM with RAW264.7 [1] of 85.6%. Moreover, the values for the pIC50 in the assay on RAW264.7 [3] and in the assay with RAW264.7 [4] were 5.57 and 4.47, respectively. In turn, `COc1cccc(/C=C/C(=N\O)c2c(O)cc(OC)cc2OC)c1` returned an inhibition at 10 µM with RAW264.7 [1] of 46.4%. As for `COc1ccc(OC)c(C(=O)/C=C/c2ccc(N(C)C)cc2)c1`, in the assay with RAW264.7 [2], the negative-log IC50 (pIC50) is 6.15. `COc1cccc(/C=C/C(=O)c2c(OC)cc(OC)cc2OC(C)=O)c1`: the inhibition at 10 µM in the assay on RAW264.7 [1] was determined as 84.6%. In addition, the pIC50 was 5.44 in the assay on RAW264.7 [3] and 4.51 with RAW264.7 [4]. In the case of `COc1ccc(OC)c(/C=C/C(=O)c2c(O)cc(OC)cc2OC)c1`, the inhibition at 10 µM in the assay with RAW264.7 [1] turned out to be 73.7%. With `CC(C)=CCc1cc(C(=O)/C=C/c2ccc(O)c(O)c2)c(O)cc1O` [BROUSSOCHALCONE A], the pIC50 with RAW264.7 [2] was 4.95.

As to `CC1(C)C=Cc2cc(/C=C/C(=O)c3ccc(O)cc3O)ccc2O1`, in the assay with RAW264.7 [2], the negative logarithm of the IC50 (pIC50) is 5.66. `COc1cc(O)c(C(=O)/C(F)=C/c2ccc(OC)c(OC)c2)c(OC)c1` returned an inhibition at 10 µM with RAW264.7 [1] of 62.6%.

For `O=C(/C=C/c1ccccc1O)c1ccsc1`, in the assay with RAW264.7 [2], the pIC50 was 5.24. Take `COc1cc(O)c(C(=O)/C=C/c2ccc3c(c2)OCO3)c(OC)c1`: the inhibition at 10 µM in the assay with RAW264.7 [1] amounted to 70%. In the assay with RAW264.7 [1], `COc1cc(O)c(C(=O)/C=C/c2ccc(Br)cc2)c(OC)c1` yielded an inhibition at 10 µM of 70.2%. The same measure, in the same setting: for `COc1cc(O)c(C(=O)/C(C)=C/c2ccccc2)c(OC)c1` the value was 57.5%; for `COc1cc(O)c(C(=O)/C(F)=C/c2ccc(O)cc2)c(OC)c1`, 70%. In the assay with RAW264.7 [1], `COc1cccc(CCC(=O)c2c(O)cc(OC)cc2OC)c1` showed an inhibition at 10 µM of 52.2%.

`COc1ccccc1C(=O)/C=C/c1ccc(Cl)c(Cl)c1` showed a pIC50 in the assay on RAW264.7 [2] of 5.15. As for `COc1ccc(/C=C/C(=O)c2ccc(OC)cc2O)cc1`, the inhibition at 10 µM in the assay on RAW264.7 [1] was 70%. In turn, `COc1cc(O)c(C(=O)/C=C/c2ccccc2)c(OC)c1` [FLAVOKAWAIN B] had an inhibition at 10 µM in the assay with RAW264.7 [1] of 80.6%. Also, the pIC50 in the assay on RAW264.7 [3] was 5.38; in the assay on RAW264.7 [4], 4.58. Molecule `COc1ccc(OC)c(/C=C(\F)C(=O)c2c(O)cc(OC)cc2OC)c1` came in with an inhibition at 10 µM in the assay on RAW264.7 [1] of 42.6%.

As to `COc1cc(O)c(C(=O)/C=C/c2ccc(OCCO)cc2)c(OC)c1`, the inhibition at 10 µM in the assay with RAW264.7 [1] is 73.6%. In the assay with RAW264.7 [1], `COc1ccc(/C=C/C(=O)c2ccccc2O)cc1` displayed an inhibition at 10 µM of 76.7%. Still for that read-out and setting: for `COc1cccc(/C=C(\F)C(=O)c2c(O)cc(OC)cc2OC)c1` the value was 58.1%. `COc1cccc(O)c1C(=O)/C=C/c1ccccc1` had a negative-log IC50 (pIC50) with RAW264.7 [2] of 5.02. `COc1cc(O)c(C(=O)/C=C/c2ccc(OCCCO)cc2)c(OC)c1` showed an inhibition at 10 µM in the assay with RAW264.7 [1] of 78.2%. The same measure, in the same setting: for `COc1cc(O)c(C(=O)/C=C/c2ccc(OC)c(OC)c2)c(OC)c1` the value was 78.7%; for `COc1ccc(/C=C/C(=O)c2c(O)cc(OC)cc2OC)cc1` [FLAVOKAWAIN A], 79.5%. For `COc1cccc(/C=C/C(=O)c2ccc(OC)cc2O)c1`, testing at 10 µM with RAW264.7 [1] gave an inhibition of 82.5%. Besides, the pIC50 in the assay with RAW264.7 [3] is 5.49; in the assay on RAW264.7 [4], 4.53.

The molecule `COc1cc(O)c(C(=O)/C=C/c2ccc(O)cc2)c(OC)c1` [FLAVOKAWAIN C] had an inhibition at 10 µM in the assay with RAW264.7 [1] of 66.8%. The same measure, in the same setting: for `COc1cc(O)c(C(=O)/C(F)=C/c2ccccc2)c(OC)c1` the value was 47.4%. `O=c1cc(-c2ccc(O)c(O)c2)oc2cc(O)cc(O)c12` [LUTEOLIN] gave an inhibition at 10 µM in the assay with RAW264.7 [1] of 54.6%. For the same molecule, the pIC50 in the assay on RAW264.7 [3] was 5.04; in the assay with RAW264.7 [4] it was less than 4.40. In the assay on RAW264.7 [1], `COc1ccc(/C=C(\F)C(=O)c2c(O)cc(OC)cc2OC)cc1` returned an inhibition at 10 µM of 50.3%. Still for that read-out and setting: for `COc1cc(O)c(C(=O)/C=C/c2cc(OC)c(OC)c([N+](=O)[O-])c2)c(OC)c1` the value was 30.8%.

One may read the inhibition as the change of the read-out against control, counted positive when it falls. The term pIC50 denotes the IC50 on a negative log10 scale, so that one unit is a factor of ten.
